{"source": "patent US6806267B1", "about": "“Apoptosis-inducing compounds” (priority 1998, dated 2004)", "key": {"[1]": {"target": "T1, peripheral-type benzodiazepine receptor (PBR) (Homo sapiens, UniProt P30536)", "T1 construct": "Cell homogenates (50 μg protein) were incubated with 0.5-50 nM [^3H]; PK 11195; endogenous in cells; host or cells: HL-60 cell homogenate", "T1 sequence (P30536 whole entry)": "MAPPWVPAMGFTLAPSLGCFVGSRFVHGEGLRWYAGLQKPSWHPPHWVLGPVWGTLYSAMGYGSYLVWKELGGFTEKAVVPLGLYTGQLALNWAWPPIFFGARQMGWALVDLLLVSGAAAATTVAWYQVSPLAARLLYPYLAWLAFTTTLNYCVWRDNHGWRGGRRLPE", "experiment": "Radioligand binding assay, inhibition of [^3H]PK 11195 binding to HL-60 homogenates", "settings": "HL-60 homogenates, 2 nM [^3H]PK 11195; mean±SEM; read-out: Inhibition of [^3H]PK 11195 binding to the PBR, Ki value", "protocol": "HL-60 cells were harvested by centrifugation at 600 g for 5 min and washing in phosphate-buffered saline. The resulting cell pellet was homogenised in 50 mM Tris/HCl buffer, pH 7.4 (2 ml), using an Ultraturrax homogeniser (10 sec) and then passed 5 times through a 21 gauge needle. Cell homogenates (50 μg protein) were incubated with 0.5-50 nM [^3H] PK 11195 in 50 mM Tris/HCl buffer, pH 7.4 (incubation buffer), in a total volume of 0.5 ml on ice. Total and non-specific/non-saturable binding in each case was determined in the absence and presence of 10 μM unlabelled PK 11195 respectively. All samples were incubated in triplicate for 60 min. The incubation mixtures were then filtered and counted as previously described (O'Beirne, et al., 1988). When testing the potency of a compound to inhibit [^3H] PK 11195 binding, samples were incubated with 2 nM [3H] PK 11195 and various concentrations (0.1 nM to 1 μM) of compound and subsequently treated exactly as above. The resulting Ki values were then generated by the use of the computer programs EBDA and LIGAND.\nThe amount of radioactivity bound in the presence of the displacer was expressed as a percentage of control bonding and the values represent the mean±SEM of triplicate determinations from one representative experiment performed at least twice. The Ki values were obtained as described in Methods section."}, "Jurkat cells": {"test_system": "Jurkat cells", "type": "cell-based, human", "settings": "1 hour, then etoposide 16 hours"}, "MCF-7 cells": {"test_system": "MCF-7 cells", "experiment": "Apoptosis in MCF-7 cells", "type": "cell-based, human", "protocol": "MCF-7 cells were maintained in minimum essential medium supplemented with non-essential amino acids (1% v/v), glutamine (1 mM), FCS (10%) and sub-cultured by the protocol described for Hela cells.\nIn all experiments performed, cells were seeded at a density of 3×10^5 cells/ml into 24-well plates (1 ml well) and immediately treated with the indicated compound. All drugs were diluted from freshly prepared ethanol stock solutions. The final concentration of ethanol in the wells was always 1% (vol/vol); a concentration which by itself had no effect on the cells tested. Following exposure to the appropriate drug, the cells (100 μL) were cytospun onto glass slides pre-coated with poly-L-lysine using a Cytospin 3™ cytocentrifuige (Shandon). They were then stained using the Rapi-Diff kit (eosinm ethylene blue) under the conditions described by the manufacturer. The percent apoptosis and necrosis was determined by counting approximately 300 cells under a light microscope with the aid of a graticule inserted into the eyepiece. At least 3 fields of view per slide, with an average of approximately 100 cells per field, were counted."}, "Cytochrome C [2]": {"test_system": "Cytochrome C", "experiment": "Cytochrome C Western blot, HL-60 cytosol", "type": "cell-based, human", "settings": "HL-60 cells", "protocol": "(§1) Cells (15×10^6) were harvested by centrifugation at 1800 g for 10 min at 4° C. After being washed once with ice-cold phosphate-buffered saline, the cell pellet was suspended in 100 μl of ice-cold buffer A (20 mM Hepes, pH 7.5, 10 mM KCl, 1.5 mM MgCl2, 1 mM sodium EDTA, 1 mM sodium EGTA, 1 mM dithiotreitol and 0.1 mM phenylmethylsulfonyl fluoride) supplemented with protease inhibitors (5 μg/ml pepstatin A, 10 μg/ml leupeptin and 2 μg/ml of aprotinin). The cells were left to sit on ice for 15 min and then centrifuged at 20,000 g for 20 min. The resulting supernatant was stored at −70° C. until measurement of cytochrome C. Protein determination was measured by using the Bradford assay. Equal amounts of protein were resolved by SDS-polyacrylamide gel electrophoresis in 15% gels and transferred onto nitro-cellulose. Membranes were blocked with phosphate-buffered saline/5% (w/v) dry milk and probed with anti-cytochrome C antibody. Blots were washed, incubated with goat anti-mouse IgG peroxidase conjugate and developed by ECL according to the manufacturer's recommendations."}, "Cytochrome C [3]": {"test_system": "Cytochrome C", "experiment": "Cytochrome C Western blot, CML cell cytosol", "type": "cell-based, human", "settings": "K562, KYO.1, Lama 84; 16 hour treatment", "protocol": "as §1"}, "[4]": {"test_system": "CML cell lines K562, KYO.1 and Lama 84", "experiment": "Agarose gel electrophoresis of DNA ladders, CML cells", "type": "cell-based, human", "settings": "all three CML cell lines"}}, "data": [{"smiles": "CN(C)C(=O)OC1=C(c2cccc3ccccc23)Oc2ccccc2-n2cccc21", "note": "[PBOX-6, 7-((Dimethylcarbamoyl)oxy)-6-(1-naphthyl)pyrrolo[2,1-d][1,5]benzoxazepine]", "values": [{"measurement": "Ki", "setting": "[1]", "result": "6.7 ± 1.7", "unit": "nM"}, {"measurement": "effect of pretreatment on etoposide induced apoptosis", "setting": "Jurkat cells", "result": "does not protect against etoposide induced apoptosis"}, {"measurement": "concentration at which morphological features of apoptosis were first observed", "setting": "MCF-7 cells", "result": 5, "unit": "μM"}, {"measurement": "Cytochrome C in the cytosol", "setting": "Cytochrome C [2]", "result": "accumulation of Cytochrome C in the cytosol"}, {"measurement": "cytochrome C levels in the cytosol", "setting": "Cytochrome C [3]", "result": "unchanged"}, {"measurement": "internucleosomal DNA fragmentation (DNA ladders)", "setting": "[4]", "result": "DNA laddering pattern was visible"}]}]}
